The values that follow come from ChEMBL document CHEMBL1201862, “PubChem BioAssay data set” (2004).

Some test systems named below: ACHN; DU-145; EKVX; HCC 2998; HL-60; KM-20L2; LOX IMVI; MCF7; MDA-MB-231; MDA-MB-435; NCI-H23; NCI/ADR-RES; OVCAR-3; OVCAR-5; RPMI-8226; SK-MEL-5; T47D; TK-10; NCI-H460; SNB-19.
Assay in all cases: growth of human tumour cells (NCI), 48 h

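Values below derive from 48-hour exposures of cells grown in 96-well plates, with endpoints linearly interpolated between the two concentrations bracketing the appropriate inhibition level. The concentration for 50% growth inhibition is given as GI50.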 The source made the active and inactive calls. No stated cut-off is given here; in the data, active = GI50 up to about 1.1 µM and inactive = higher.

For `CC(=O)O[C@H]1C(=O)O[C@@H]2C[C@H]3C(C)=CC(=O)[C@@H](O)[C@]3(C)[C@H]3[C@@]4(O)OC[C@]32[C@@H]1[C@@H](C)[C@H]4O`, the GI50 in the assay on ACHN was 0.0317 µM (active); with DU-145, 0.0321 µM (active); in the assay with EKVX, 0.0453 µM (active); in the assay with HCC 2998, 0.0505 µM (active); with HL-60, 0.0229 µM (active); in the assay with KM-20L2, 0.0977 µM (active). Besides, the GI50 with LOX IMVI was 0.0321 µM (active); with MCF7, 0.0294 µM (active); with MDA-MB-231, 0.0475 µM (active); with MDA-MB-435, 0.0214 µM (active); in the assay with NCI-H23 it was 0.0268 µM (active); with NCI/ADR-RES it was 2.21 µM (inactive). The GI50 in the assay with OVCAR-3 was 0.0266 µM (active); with OVCAR-5 it was 0.348 µM (active); in the assay on RPMI-8226 it was 0.0286 µM (active); with SK-MEL-5, 0.0247 µM (active); with T47D it was 0.0228 µM (active); with TK-10, < 0.0234 µM (active).
For the molecule `O=c1[nH]c(=O)n(C2OC(COP(=O)(O)OP(=O)(O)OC3OC(CO)C(O)C(O)C3O)C(O)C2O)cc1F` (centres undefined), the GI50 in the assay with ACHN was 0.0217 µM (active); with EKVX, 1.12 µM (inactive); in the assay on HCC 2998, 0.116 µM (active); in the assay with HL-60, 0.065 µM (active); in the assay with KM-20L2, 0.101 µM (active); in the assay with LOX IMVI, 0.0314 µM (active). Also, the GI50 in the assay with NCI-H23 was 0.147 µM (active); in the assay on NCI-H460, < 0.014 µM (active); in the assay on OVCAR-3, 0.552 µM (active); in the assay with OVCAR-5, 0.908 µM (active); in the assay with RPMI-8226, < 0.01 µM (active); with SK-MEL-5, 0.407 µM (active). Further, the GI50 with SNB-19 was 0.156 µM (active); with TK-10, 1.67 µM (inactive).
For the molecule `Cc1cc(=O)oc2cc(OCc3nc4ccccc4c(=O)[nH]3)ccc12`, the GI50 in the assay with ACHN, in the assay on EKVX, in the assay with HCC 2998, with HL-60, in the assay with KM-20L2 and in the assay on LOX IMVI was > 100 µM (inactive) in each case. Besides, the GI50 in the assay on NCI-H23, with NCI-H460, with OVCAR-3, in the assay on OVCAR-5, in the assay on RPMI-8226 and in the assay with SK-MEL-5 was > 100 µM (inactive) each time. Further, the GI50 with SNB-19 and in the assay with TK-10 was > 100 µM (inactive) each time.
With `O=C(OCc1ccccc1)n1cccc1`, the GI50 is > 100 µM (inactive) in the assay with ACHN; > 100 µM (inactive) with EKVX; > 100 µM (inactive) in the assay with HCC 2998; 57.4 µM (inactive) in the assay on HL-60; > 100 µM (inactive) in the assay on KM-20L2; > 100 µM (inactive) in the assay with LOX IMVI. Moreover, the GI50 was 98.6 µM (inactive) in the assay on NCI-H23; > 100 µM (inactive) in the assay on NCI-H460; > 100 µM (inactive) in the assay with OVCAR-3; > 100 µM (inactive) in the assay on OVCAR-5; 54.6 µM (inactive) with RPMI-8226; > 100 µM (inactive) with SK-MEL-5. Besides, the GI50 in the assay with SNB-19 and in the assay on TK-10 was > 100 µM (inactive) in each case.
Regarding `COc1ccccc1-c1cc(=O)c2cc(C)c(C)c(C(=O)O)c2o1`, the GI50 in the assay with ACHN, with EKVX, in the assay on HCC 2998, in the assay on HL-60, with KM-20L2 and with LOX IMVI was > 100 µM (inactive) in each case. Also, the GI50 with NCI-H23, in the assay with NCI-H460, with OVCAR-3, with OVCAR-5, with RPMI-8226 and in the assay with SK-MEL-5 was > 100 µM (inactive) throughout. Also, the GI50 with SNB-19 and in the assay with TK-10 was > 100 µM (inactive) in each case.
